Test results published in patent US20210246128A1, “BICYCLE TOPOISOMERASE I INHIBITING COMPOUNDS, PROCESS FOR PREPARATION AND USE THEREOF” (Council of Scientific & Industrial Research, priority 2018, published 2021).
Values after ≈ are worked out from the molar mass of the structure shown. Where two headings read alike, the source gives them in different places.

Columns and labels:
[1] = Solubility assay (pH 7.4 pION buffer, UV); assay type: physicochemical; details: pH 7.4 pION buffer, aqueous buffer, kinetic from dmso stock; pH 7.4 buffer, 18 hours incubation; read-out: Avg. Solubility (μg/mL) at pH 7.4
Procedure: 5 μL of 20 mM DMSO stock from the stock plate was added to the reaction deep well plate containing 495 μL of pH 7.4 pION buffer (including DMSO control) respectively and the samples were mixed and incubated for 18 hours. The plate was sealed well during the incubation process. The DMSO content in the sample was <1.0%. The concentration in deep well plates was 200 μM. 4 μL of 20 mM stock (including DMSO control) was added to 996 μL of acetonitrile to prepare the working stock plate. 75 μL of working stock was added to 75 μL of blank buffer and read on spectrophotometer as reference plate at 240 nm. At the end of the incubation period, 100 μL of sample from storage plate was vacuum filtered using a filter plate. This step wets the filters and the filtrate was discarded. Another 200 μL of the sample from deep well plate was vacuum filtered in to a new filter collection plate. 75 μL of the filtrate from the filter collection plate was transferred to a UV sample plate. 75 μL of acetonitrile was added to this UV plate. The solution was mixed and the spectrum was read using the UV spectrophotometer at 240 nm. Plates were read on spectramax using SoftMax Pro software version 5.3.

[2] = target: T1, recombinant human TopI (HTopI) (Homo sapiens, UniProt P11387); test: Gel based plasmid DNA relaxation assay with recombinant TopI (in vitro); assay type: biochemical; details: for inhibition at 10 µM: read-out: In vitro inhibition at 10 μM; for IC50: plasmid DNA relaxation
T1 sequence (P11387 1-765): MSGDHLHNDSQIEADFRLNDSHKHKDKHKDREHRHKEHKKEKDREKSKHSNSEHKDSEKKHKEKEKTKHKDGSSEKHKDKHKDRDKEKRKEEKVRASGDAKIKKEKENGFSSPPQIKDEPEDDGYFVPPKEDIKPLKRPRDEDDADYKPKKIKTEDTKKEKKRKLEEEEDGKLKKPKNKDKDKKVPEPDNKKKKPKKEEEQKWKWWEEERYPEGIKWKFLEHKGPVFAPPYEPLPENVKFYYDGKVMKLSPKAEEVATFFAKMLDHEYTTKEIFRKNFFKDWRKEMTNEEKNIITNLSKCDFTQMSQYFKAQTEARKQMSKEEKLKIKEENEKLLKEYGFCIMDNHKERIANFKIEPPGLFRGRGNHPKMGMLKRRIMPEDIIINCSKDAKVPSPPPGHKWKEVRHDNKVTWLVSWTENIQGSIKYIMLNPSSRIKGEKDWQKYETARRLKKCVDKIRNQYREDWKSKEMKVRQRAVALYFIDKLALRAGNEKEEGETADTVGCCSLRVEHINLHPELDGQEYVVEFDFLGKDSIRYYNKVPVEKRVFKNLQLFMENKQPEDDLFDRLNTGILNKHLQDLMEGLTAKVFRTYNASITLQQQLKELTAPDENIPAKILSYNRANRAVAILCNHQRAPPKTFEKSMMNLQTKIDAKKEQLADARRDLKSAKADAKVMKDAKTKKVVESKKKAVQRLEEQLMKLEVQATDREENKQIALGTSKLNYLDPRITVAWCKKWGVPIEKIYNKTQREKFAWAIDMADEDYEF
Procedure: (§1) Human ToPI Inhibition in Plasmid DNA Relaxation Assays with Recombinant TopI (In Vitro) or MCF7 Cell Lysates (Ex Vivo)
(§2) Relaxation of supercoiled pBSSK(^+) DNA with recombinant human TopI (HTopI) at a molar ratio of 3:1 at 37° C. for 30 minutes was performed

Plasma stability assay = assay type: in vitro ADME; details: pH 7.4, 37° C., 1 μM
Procedure: The stock solution of 10 mM of test compound in DMSO was prepared and stored at 4° C. 25 μM stock of test compound was prepared in acetonitrile: water by diluting from 10 mM stock (i.e. 2.5 μL of 10 mM stock solution was added to 997.5 μL of acetonitrile: water (50:50). The frozen plasma was thawed at room temperature and centrifuged at 1400×RCF (relative centrifugal force) 4° C., for 15 minutes. Approximately 90% of the clear supernatant fraction was transferred to a separate tube and was used for the assay.
For 0 min samples, plasma was heat inactivated at 56° C. for 45 min. To 72 μL of heat inactivated plasma, 3 μL of 25 μM test compound was added. A 25 μL aliquot of the mixture was taken and crashed with 200 μL of acetonitrile containing internal standard and further processed along with other time points. For other time point samples, final working stock of 1 μM was prepared by diluting in plasma (i.e. 8 μL of 25 μM acetonitrile:water stock was added to 192 μL of plasma). 200 μL of plasma containing the test compound was incubated for 2 hrs at 37° C. in shaker water bath with gentle shaking. 25 μL aliquot of sample at 0, 15, 30, 60 and 120 min was precipitated immediately with 200 μL of acetonitrile containing internal standard and centrifuged at 4000×RCF, 4° C. for 20 minutes. 150 μL of supernatant was diluted with 150 μL of water and analyzed on LC-MS/MS.

[3] = Caco-2 permeability (21 day culture of Caco-2 cell monolayer); assay type: in vitro ADME; details: human; for recovery at 120 min, 10 μM: Caco-2, pH 7.4, Caco-2; for Papp A→B at 120 min, 10 μM / Papp B→A at 120 min, 10 μM: pH 7.4, Caco-2, 10 μM; for Papp A→B at 120 min, 10 μM: read-out: Papp Apical to Basal; for Papp B→A at 120 min, 10 μM: read-out: Papp Basal to Apical
Procedure: 5 mL of 100 mM sodium pyruvate, 5 mL of 10× non-essential amino acids, 5 mL of penstrep were added to 100 mL of heat inactivated foetal bovine serum to 385 mL of DMEM aseptically and mixed thoroughly. One vial of Hank's balanced salt (Sigma-H1387) was dissolved in 900 mL of milli Q water; adjusted the pH to 7.4 and made up the volume to 1000 mL with the same. The solution was filter sterilized and stored at 4° C. Stock solution of test compound (10 mM) was prepared in DMSO. 10 mM stock was diluted with HBSS Buffer to a final concentration of 10 μM.
250 μL of DMEM was added to the basal compartment of 96 well multi-screen Caco-2 plate and seeded 12000 cells/well (0.16×10^6 cells/ml) in all the apical wells required and one well with only media as blank without cells, placed the Caco-2 plate in CO2 incubator at 37° C. for proliferation of cells.
On the day of assay, medium was removed and washed twice with HBSS Buffer and incubated with HBSS buffer for 30 min in an incubator and wells with TEER values >230 ohm·cm^2 were selected for the incubation. 75 μL of test compound was added to apical wells and 250 μL of HBSS buffer with 2% BSA was added to basal wells. 25 μL of basal samples was collected at 120 min and processed as stated below.
250 μL of test compound was added to basal wells and 75 μL of HBSS buffer with 2% BSA was added to apical wells. 25 μL of apical samples was collected at 120 min and processed as stated below.
Single point calibration curve in HBSS buffer with 2% BSA was used. Donor samples were diluted 1:1 with HBSS containing 2% BSA and receiver samples were diluted with 1.1 HBSS buffer and precipitated with 200 μL of acetonitrile containing internal standard and vortexed for 5 min @ 1000 rpm, centrifuged at 4000 rpm for 10 min. Finally 100 μL of supernatant was diluted with 200 μL of water and submitted for LC-MS/MS analysis.

[4] = target: T2, endogenous TopI from the whole cell extracts of human breast adenocarcinoma (MCF7) cell (Homo sapiens, UniProt P11387); test: Plasmid DNA relaxation assay with MCF7 cell lysates (ex vivo); assay type: biochemical; details: MCF7 cell lysates as source of TopI
T2 construct: TopI enzyme in the extract is conserved in its native structure among a plethora of other cellular proteins; endogenous in cells; host or cells: MCF7 whole cell extract
T2 sequence (P11387 1-765): T1 sequence (P11387 1-765)
Procedure: as §1, §2
cellular extracts were utilized as a source of TopI (ex vivo) in plasmid DNA relaxation assays. TopI enzyme in the extract is conserved in its native structure among a plethora of other cellular proteins.

[5] = Lipophilicity assay (octanol/buffer Log D); details: octanol / sodium phosphate buffer pH 7.4
Procedure: 1.56 g NaH2PO4.2H2O was dissolved in 0.5 L water in a 1 L beaker. After adjusting pH to 7.4 using NaOH solution, the volume was made up to 1 L. Equal volumes of sodium phosphate buffer (10 mM, pH 7.4) and n-octanol were added to a separation funnel and mixed thoroughly by shaking and inverting the funnel several times. The two layers were allowed to separate for 2 days and then dispensed in two separate glass bottles. 10 mM stock solution was prepared in 100% DMSO and stored at 4° C. 500 μL of organic phase (1-octanol) was added to each well of a 2 mL deep well plate, followed by 500 μL of buffer and 15 μL of test substance was added. The plate was vortexed for 1 hr on a plate shaker at 1200 rpm. After incubation, the samples were allowed to equilibrate for 20 min and then centrifuged at 4000 rpm for 30 min for complete phase separation and analysed by LC-UV.
Log D=Log(area of octanol/area of buffer)
Mean, SD and % CV for each set of triplicates were calculated

[6] = recombinant human TopI, at 10 μM

`CCCSc1ccc2nc(NC(=O)OC)[nH]c2c1` [Albendazole, reference compound] showed a solubility at 18 h [1] of 3.31 µg/mL (≈ 12.5 µM).
`COc1ccc(-c2ccc3ncc(-c4nnc(C)o4)c(NCCN4CCOCC4)c3c2)cc1` [Compound 14, 6-(4-methoxyphenyl)-3-(5-methyl-1,3,4-oxadiazol-2-yl)-N-(2-morpholinoethyl)quinolin-4-amine] showed an inhibition at 10 µM [2, 6] of 50%.
For `CCOC(=O)c1cnc2ccc(Br)cc2c1NCCCn1ccnc1` [Compound 15, ethyl 4-((3-(1H-imidazol-1-yl)propyl)amino)-6-bromoquinoline-3-carboxylate], the inhibition at 10 µM [2, 6] was 30%.
Molecule `Brc1ccc2ncc(-c3nnco3)c(NCCCn3ccnc3)c2c1` [Compound 17, N-(3-(1H-imidazol-1-yl)propyl)-6-bromo-3-(1,3,4-oxadiazol-2-yl)quinolin-4-amine] has an inhibition at 10 µM [2, 6] of 30%.
With `Nc1ccc(-c2ccc3ncc(-c4nnco4)c(NCCCn4ccnc4)c3c2)cc1` [Compound 20, N-(3-(1H-imidazol-1-yl)propyl)-6-(4-aminophenyl)-3-(1,3,4-oxadiazol-2-yl)quinolin-4-amine] the “Mean % remaining at 2 hrs in human Plasma” value (“Mean % remaining at 2 hrs” for short) (Plasma stability assay) was 91.32%, the recovery at 120 min, 10 μM ([3]; read-out: A to B % Recovery) was 72.7% and the recovery at 120 min, 10 μM ([3]; read-out: B to A % Recovery) was 91.7%. The Papp A→B at 120 min, 10 μM [3] was 0.63 ×10⁻⁶ cm/s, the Papp B→A at 120 min, 10 μM [3] was 44.2 ×10⁻⁶ cm/s and the IC50 ([2]; recombinant human TopI) was 24 nM. The IC50 [4] was 2250 nM and the “Log D @ pH 7.40 Mean” value [5] was 2.56.
For `COc1ccc(-c2ccc3ncc(-c4nnco4)c(NCCCn4ccnc4)c3c2)c(OC)c1` [Compound 27, N-(3-(1H-imidazol-1-yl)propyl)-6-(2,4-dimethoxyphenyl)-3-(1,3,4-oxadiazol-2-yl)quinolin-4-amine], the inhibition at 10 µM [2, 6] was 45%.
Molecule `COc1ccc(-c2ccc3ncc(-c4nnco4)c(NCCCn4ccnc4)c3c2)cc1C` [Compound 28, N-(3-(1H-imidazol-1-yl)propyl)-6-(4-methoxy-3-methylphenyl)-3-(1,3,4-oxadiazol-2-yl)quinolin-4-amine] has an IC50 ([2]; recombinant human TopI) of 2360 nM and an IC50 [4] of 3000 nM.
`Cc1ccc(-c2ccc3ncc(-c4nnco4)c(NCCCn4ccnc4)c3c2)cc1` [Compound 29, N-(3-(1H-imidazol-1-yl)propyl)-3-(1,3,4-oxadiazol-2-yl)-6-p-tolylquinolin-4-amine] gave an IC50 ([2]; recombinant human TopI) of 1060 nM and an IC50 [4] of 3750 nM.
In the case of `COc1ccc(-c2ccc3ncc(-c4nnco4)c(NCCCN4CCOCC4)c3c2)cc1` [Compound 43, 6-(4-methoxyphenyl)-N-(3-morpholinopropyl)-3-(1,3,4-oxadiazol-2-yl)quinolin-4-amine], the “Mean % remaining at 2 hrs” value (Plasma stability assay) is reported as 83.38%, the recovery at 120 min, 10 μM ([3]; read-out: A to B % Recovery) is reported as 42.6% and the recovery at 120 min, 10 μM ([3]; read-out: B to A % Recovery) is reported as 58.5%. For the same molecule, the Papp A→B at 120 min, 10 μM [3] was 10.9 ×10⁻⁶ cm/s, the Papp B→A at 120 min, 10 μM [3] was 11 ×10⁻⁶ cm/s and the “Log D @ pH 7.40 Mean” value [5] was 3.26.
With `COc1ccc(-c2ccc3ncc(-c4nnc(N)o4)c(NCCCn4ccnc4)c3c2)cc1` [Compound 52, 5-(4-(3-(1H-imidazol-1-yl)propylamino)-6-(4-methoxyphenyl)quinolin-3-yl)-1,3,4-oxadiazol-2-amine] the inhibition at 10 µM [2] was 45%.
In the case of `COc1ccc(-c2ccc3ncc(-c4nnc(C)o4)c(NCCCn4ccnc4)c3c2)cc1` [Compound 54, N-(3-(1H-imidazol-1-yl)propyl)-6-(4-methoxyphenyl)-3-(5-methyl-1,3,4-oxadiazol-2-yl)quinolin-4-amine], the inhibition at 10 µM [2, 6] is reported as 55%.
With `COc1ccc(-c2ccc3ncc(-c4ccc(N)nc4)c(NCCCn4ccnc4)c3c2)cc1` [Compound 73, N-(3-(1H-imidazol-1-yl)propyl)-3-(6-aminopyridin-3-yl)-6-(4-methoxyphenyl)quinolin-4-amine] the IC50 ([2]; recombinant human TopI) was 5240 nM.
Molecule `CNc1c(-c2nnco2)cnc2ccc(-c3ccc(OC)cc3)cc12` [Compound 77, 6-(4-methoxyphenyl)-N-methyl-3-(1,3,4-oxadiazol-2-yl)quinolin-4-amine] has an inhibition at 10 µM [2, 6] of 20%.
For `CCOC(=O)c1cnc2ccc(-c3ccc(OC)cc3)cc2c1NCCCn1ccnc1` [Compound 78, ethyl 4-((3-(1H-imidazol-1-yl)propyl)amino)-6-(4-methoxyphenyl)quinoline-3-carboxylate], the inhibition at 10 µM [2, 6] was 35%.
Work on `CC(C(=O)O)c1ccc(-c2ccccc2)c(F)c1` (stereo not drawn) [Flurbiprofen, reference compound] yielded a solubility at 18 h [1] of 54 µg/mL (≈ 221 µM).
With `COCCc1ccc(OCC(O)CNC(C)C)cc1` (stereo not drawn) [Metoprolol, reference compound] the “Log D @ pH 7.40 Mean” value [5] was −0.29.
For `CC(C)[N+](C)(CCOC(=O)C1c2ccccc2Oc2ccccc21)C(C)C` [Propantheline, reference compound], the “Mean % remaining at 2 hrs” value (Plasma stability assay) was 0.00%.
`CC(C)NCC(O)COc1cccc2ccccc12` (stereo not drawn) [Propranolol, reference compound] showed a recovery at 120 min, 10 μM ([3]; read-out: A to B % Recovery) of 68%, a recovery at 120 min, 10 μM ([3]; read-out: B to A % Recovery) of 72.7% and a Papp A→B at 120 min, 10 μM [3] of 19.1 ×10⁻⁶ cm/s. The Papp B→A at 120 min, 10 μM [3] was 13.3 ×10⁻⁶ cm/s.
In the case of Topotecan [reference compound], the “Mean % remaining at 2 hrs” value (Plasma stability assay) is reported as 11.5%.
